Experimental data as given in ChEMBL document CHEMBL5696442, “Discovery of type II inhibitors of TGFβ-activated kinase 1 (TAK1) and mitogen-activated protein kinase kinase kinase kinase 2 (MAP4K2)” (J Med Chem, 2015).
The source made the active and inactive calls. No cut-off for these calls is given here.

What was measured:
[1] = target: Macrophage-stimulating protein receptor (Homo sapiens) (UniProt Q04912); test: Inhibition of MST1R (unknown origin) at 10 uM by Ambit Kinomescan binding assay
[2] = target: Non-receptor tyrosine-protein kinase TYK2 (Homo sapiens) (UniProt P29597); test: Inhibition of TYK2 domain2 ACT labeling site in human A-375 cells at 5 uM by KiNativ Profiling analysis relative to control; assay type: cell-based
[3] = Inhibition of Wnk1/2/4 ACT labeling site in human Huh-7 cells at 1 uM by KiNativ Profiling analysis relative to control; conditions: condition cancer
[4] = target: Serine/threonine-protein kinase 10 (Homo sapiens) (UniProt O94804); test: Inhibition of LOK Lys1 labeling site harbouring NKETGALAAAKVIETK in human A-375 cells at 5 uM by KiNativ Profiling analysis relative to control; assay type: cell-based
[5] = target: Tyrosine-protein kinase JAK1 (Homo sapiens) (UniProt P23458); test: Inhibition of JAK1 JH2 pseudokinase domain (unknown origin) at 10 uM by Ambit Kinomescan binding assay
[6] = target: Cyclin-dependent kinase 14 (Homo sapiens) (UniProt O94921); test: Inhibition of PFTAIRE1 Lys2 labeling site in human A-375 cells at 5 uM by KiNativ Profiling analysis relative to control
[7] = target: Serine/threonine-protein kinase MRCK alpha (Homo sapiens) (UniProt Q5VT25); test: Inhibition of MRCKA (unknown origin) at 10 uM by Ambit Kinomescan binding assay
[8] = target: Calcium/calmodulin-dependent protein kinase type II subunit gamma (Homo sapiens) (UniProt Q13555); test: Inhibition of CAMK2g K1 labeling site harbouring KTSTQEYAAKIINTK in human Huh-7 cells at 10 uM by KiNativ Profiling analysis relative to control; assay type: cell-based
[9] = target: Serine/threonine-protein kinase TNNI3K (Homo sapiens) (UniProt Q59H18); test: Inhibition of TNNI3K (unknown origin) at 10 uM by Ambit Kinomescan binding assay relative to control; values are per cent of control
[10] = target: Dual specificity protein kinase CLK2 (Homo sapiens) (UniProt P49760); test: Inhibition of CLK2 (unknown origin) at 10 uM by Ambit Kinomescan binding assay
[11] = target: Cyclin-dependent kinase 13 (Homo sapiens) (UniProt Q14004); test: Inhibition of CHED K2 labeling site in human Huh-7 cells at 1 uM by KiNativ Profiling analysis relative to control; assay type: cell-based
[12] = target: T1, Mitogen-activated protein kinase kinase kinase 7 (Homo sapiens) (UniProt O43318); test: Inhibition of TAK1 Lys2 labeling site harbouring DLKPPNLLLVAGGTVLK in human Huh-7 cells at 1 uM by KiNativ Profiling analysis relative to control; assay type: cell-based
T1 sequence (whole entry): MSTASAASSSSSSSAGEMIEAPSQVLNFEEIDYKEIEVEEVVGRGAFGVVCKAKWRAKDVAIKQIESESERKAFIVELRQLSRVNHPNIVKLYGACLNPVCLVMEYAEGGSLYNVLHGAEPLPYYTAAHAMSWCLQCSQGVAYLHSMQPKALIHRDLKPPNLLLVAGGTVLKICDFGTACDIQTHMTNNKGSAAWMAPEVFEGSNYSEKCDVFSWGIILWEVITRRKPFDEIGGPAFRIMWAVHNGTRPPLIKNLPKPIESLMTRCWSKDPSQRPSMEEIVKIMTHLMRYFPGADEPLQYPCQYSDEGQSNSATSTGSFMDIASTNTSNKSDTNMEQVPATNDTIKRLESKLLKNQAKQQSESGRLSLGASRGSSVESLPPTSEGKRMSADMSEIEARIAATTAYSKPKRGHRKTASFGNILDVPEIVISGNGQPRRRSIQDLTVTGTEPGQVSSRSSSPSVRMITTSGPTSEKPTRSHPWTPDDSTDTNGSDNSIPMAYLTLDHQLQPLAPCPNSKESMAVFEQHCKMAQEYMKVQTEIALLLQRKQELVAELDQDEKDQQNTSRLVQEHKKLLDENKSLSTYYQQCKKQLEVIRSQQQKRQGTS

[13] = target: T2, Dual specificity mitogen-activated protein kinase kinase 6 (Homo sapiens) (UniProt P52564); test: Inhibition of MAP2K6 Lys1 labeling site in human Huh-7 cell lysate at 1 uM by KiNativ Profiling analysis relative to control; assay type: subcellular
T2 sequence (whole entry): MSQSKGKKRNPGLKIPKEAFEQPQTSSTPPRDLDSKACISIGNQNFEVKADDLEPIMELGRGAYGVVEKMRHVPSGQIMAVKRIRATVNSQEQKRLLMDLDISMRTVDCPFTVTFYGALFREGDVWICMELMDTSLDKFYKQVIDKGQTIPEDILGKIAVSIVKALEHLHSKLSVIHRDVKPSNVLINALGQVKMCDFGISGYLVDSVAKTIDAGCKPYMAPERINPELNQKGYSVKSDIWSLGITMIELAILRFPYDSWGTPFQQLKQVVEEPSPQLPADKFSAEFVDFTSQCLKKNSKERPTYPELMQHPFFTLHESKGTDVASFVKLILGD

[14] = target: Serine/threonine-protein kinase 38-like (Homo sapiens) (UniProt Q9Y2H1); test: Inhibition of NDR2 Lys1 labeling site in human Huh-7 cell lysate at 1 uM by KiNativ Profiling analysis relative to control; assay type: subcellular
[15] = target: Tyrosine-protein kinase Fer (Homo sapiens, UniProt P16591); test: Inhibition of FER Lys1 labeling site in human Huh-7 cells at 1 uM by KiNativ Profiling analysis relative to control; assay type: cell-based
[16] = target: Ribosomal protein S6 kinase alpha-4 (Homo sapiens) (UniProt O75676); test: Inhibition of MSK2 domain1 ATP Loop labeling site in human Huh-7 cells at 1 uM by KiNativ Profiling analysis relative to control; assay type: cell-based
[17] = target: Mitogen-activated protein kinase kinase kinase 12 (Homo sapiens) (UniProt Q12852); test: Inhibition of DLK Lys2 labeling site harbouring in human A-375 cells at 0.5 uM by KiNativ Profiling analysis relative to control
[18] = target: Serine/threonine-protein kinase Nek4 (Homo sapiens) (UniProt P51957); test: Inhibition of NEK4 (unknown origin) at 1 uM by Ambit Kinomescan binding assay relative to control; values are per cent of control
[19] = target: Serine/threonine-protein kinase BRSK1 (Homo sapiens) (UniProt Q8TDC3); test: Inhibition of BRSK1 (unknown origin) at 1 uM by Ambit Kinomescan binding assay relative to control; values are per cent of control
[20] = target: RAC-alpha serine/threonine-protein kinase (Homo sapiens) (UniProt P31749); test: Inhibition of AKT1 (unknown origin) at 1 uM by Ambit Kinomescan binding assay relative to control
[21] = target: MAP/microtubule affinity-regulating kinase 3 (Homo sapiens) (UniProt P27448); test: Inhibition of MARK3 Lys2 labeling site in human A-375 cells at 0.5 uM by KiNativ Profiling analysis relative to control; assay type: cell-based
MAP/microtubule affinity-regulating kinase 3 (Homo sapiens), sequence (P27448 whole entry, looked up): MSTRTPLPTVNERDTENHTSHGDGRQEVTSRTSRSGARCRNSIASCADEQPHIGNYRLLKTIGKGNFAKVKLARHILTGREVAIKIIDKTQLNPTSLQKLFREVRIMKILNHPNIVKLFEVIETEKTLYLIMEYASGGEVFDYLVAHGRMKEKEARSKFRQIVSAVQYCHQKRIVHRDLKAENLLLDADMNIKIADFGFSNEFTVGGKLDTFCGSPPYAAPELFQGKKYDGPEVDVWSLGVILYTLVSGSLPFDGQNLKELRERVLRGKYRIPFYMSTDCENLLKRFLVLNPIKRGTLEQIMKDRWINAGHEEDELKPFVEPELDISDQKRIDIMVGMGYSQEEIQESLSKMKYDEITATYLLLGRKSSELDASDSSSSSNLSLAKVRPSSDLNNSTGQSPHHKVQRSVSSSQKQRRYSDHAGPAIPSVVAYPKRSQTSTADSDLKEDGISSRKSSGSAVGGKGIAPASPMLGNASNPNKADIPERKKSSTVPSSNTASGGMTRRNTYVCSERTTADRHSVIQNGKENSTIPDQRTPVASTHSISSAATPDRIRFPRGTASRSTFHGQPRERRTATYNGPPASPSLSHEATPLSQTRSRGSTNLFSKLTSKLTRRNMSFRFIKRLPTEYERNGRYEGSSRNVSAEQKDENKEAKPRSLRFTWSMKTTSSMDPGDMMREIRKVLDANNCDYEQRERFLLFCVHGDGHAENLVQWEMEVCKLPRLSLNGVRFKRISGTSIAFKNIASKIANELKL

Macrophage-stimulating protein receptor (Homo sapiens), sequence (Q04912 25-304 limits assumed): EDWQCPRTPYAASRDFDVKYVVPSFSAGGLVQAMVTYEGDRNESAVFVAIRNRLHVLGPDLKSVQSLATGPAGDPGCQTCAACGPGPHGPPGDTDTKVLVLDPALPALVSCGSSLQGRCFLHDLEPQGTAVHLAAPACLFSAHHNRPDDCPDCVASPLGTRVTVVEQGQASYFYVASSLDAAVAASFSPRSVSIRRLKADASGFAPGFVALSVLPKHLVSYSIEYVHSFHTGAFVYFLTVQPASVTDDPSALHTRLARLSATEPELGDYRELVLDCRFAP
Macrophage-stimulating protein receptor (Homo sapiens), sequence (Q04912 310-1400 limits assumed): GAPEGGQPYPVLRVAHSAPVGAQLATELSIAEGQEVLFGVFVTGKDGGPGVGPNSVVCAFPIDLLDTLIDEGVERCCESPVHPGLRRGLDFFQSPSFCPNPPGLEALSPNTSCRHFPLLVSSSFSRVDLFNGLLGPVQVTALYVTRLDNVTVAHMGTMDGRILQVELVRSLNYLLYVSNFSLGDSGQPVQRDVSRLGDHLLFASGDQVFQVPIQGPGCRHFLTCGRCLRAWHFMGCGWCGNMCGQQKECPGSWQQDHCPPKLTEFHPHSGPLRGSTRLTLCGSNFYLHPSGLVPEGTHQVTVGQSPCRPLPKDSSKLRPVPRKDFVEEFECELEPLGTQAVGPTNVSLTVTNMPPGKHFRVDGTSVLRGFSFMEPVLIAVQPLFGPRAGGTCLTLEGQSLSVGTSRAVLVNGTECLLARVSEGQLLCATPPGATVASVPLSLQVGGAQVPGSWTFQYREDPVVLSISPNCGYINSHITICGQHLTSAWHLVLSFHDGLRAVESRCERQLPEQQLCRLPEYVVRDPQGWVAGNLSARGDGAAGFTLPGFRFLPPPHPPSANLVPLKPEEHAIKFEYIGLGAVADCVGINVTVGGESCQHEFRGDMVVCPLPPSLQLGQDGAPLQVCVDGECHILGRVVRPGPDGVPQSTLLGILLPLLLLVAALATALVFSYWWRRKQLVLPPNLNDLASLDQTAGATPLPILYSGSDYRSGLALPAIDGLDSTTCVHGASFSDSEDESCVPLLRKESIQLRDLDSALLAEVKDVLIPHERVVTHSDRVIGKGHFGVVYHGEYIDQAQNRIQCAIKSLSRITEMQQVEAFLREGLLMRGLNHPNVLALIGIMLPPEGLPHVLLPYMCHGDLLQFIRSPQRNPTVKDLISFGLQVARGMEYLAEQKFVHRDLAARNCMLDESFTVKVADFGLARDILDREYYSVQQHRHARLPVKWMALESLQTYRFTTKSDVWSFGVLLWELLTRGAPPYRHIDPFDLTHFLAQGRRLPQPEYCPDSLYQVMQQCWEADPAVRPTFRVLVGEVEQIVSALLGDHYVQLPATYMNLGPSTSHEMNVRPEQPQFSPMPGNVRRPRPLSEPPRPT
Serine/threonine-protein kinase 38-like (Homo sapiens), sequence (Q9Y2H1 2-464 limits assumed): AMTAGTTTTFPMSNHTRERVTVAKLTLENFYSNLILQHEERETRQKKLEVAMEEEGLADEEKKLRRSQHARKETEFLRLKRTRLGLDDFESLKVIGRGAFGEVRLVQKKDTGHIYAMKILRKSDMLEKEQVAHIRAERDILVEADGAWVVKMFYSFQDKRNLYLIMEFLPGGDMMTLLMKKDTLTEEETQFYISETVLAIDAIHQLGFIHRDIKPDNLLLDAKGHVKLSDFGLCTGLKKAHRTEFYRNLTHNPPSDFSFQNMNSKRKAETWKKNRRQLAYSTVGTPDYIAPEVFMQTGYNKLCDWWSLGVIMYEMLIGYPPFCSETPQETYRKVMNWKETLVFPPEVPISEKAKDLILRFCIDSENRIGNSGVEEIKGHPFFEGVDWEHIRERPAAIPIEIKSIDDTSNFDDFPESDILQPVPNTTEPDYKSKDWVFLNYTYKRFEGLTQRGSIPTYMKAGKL
Serine/threonine-protein kinase 10 (Homo sapiens), sequence (O94804 whole entry, looked up, the tested form may be a part): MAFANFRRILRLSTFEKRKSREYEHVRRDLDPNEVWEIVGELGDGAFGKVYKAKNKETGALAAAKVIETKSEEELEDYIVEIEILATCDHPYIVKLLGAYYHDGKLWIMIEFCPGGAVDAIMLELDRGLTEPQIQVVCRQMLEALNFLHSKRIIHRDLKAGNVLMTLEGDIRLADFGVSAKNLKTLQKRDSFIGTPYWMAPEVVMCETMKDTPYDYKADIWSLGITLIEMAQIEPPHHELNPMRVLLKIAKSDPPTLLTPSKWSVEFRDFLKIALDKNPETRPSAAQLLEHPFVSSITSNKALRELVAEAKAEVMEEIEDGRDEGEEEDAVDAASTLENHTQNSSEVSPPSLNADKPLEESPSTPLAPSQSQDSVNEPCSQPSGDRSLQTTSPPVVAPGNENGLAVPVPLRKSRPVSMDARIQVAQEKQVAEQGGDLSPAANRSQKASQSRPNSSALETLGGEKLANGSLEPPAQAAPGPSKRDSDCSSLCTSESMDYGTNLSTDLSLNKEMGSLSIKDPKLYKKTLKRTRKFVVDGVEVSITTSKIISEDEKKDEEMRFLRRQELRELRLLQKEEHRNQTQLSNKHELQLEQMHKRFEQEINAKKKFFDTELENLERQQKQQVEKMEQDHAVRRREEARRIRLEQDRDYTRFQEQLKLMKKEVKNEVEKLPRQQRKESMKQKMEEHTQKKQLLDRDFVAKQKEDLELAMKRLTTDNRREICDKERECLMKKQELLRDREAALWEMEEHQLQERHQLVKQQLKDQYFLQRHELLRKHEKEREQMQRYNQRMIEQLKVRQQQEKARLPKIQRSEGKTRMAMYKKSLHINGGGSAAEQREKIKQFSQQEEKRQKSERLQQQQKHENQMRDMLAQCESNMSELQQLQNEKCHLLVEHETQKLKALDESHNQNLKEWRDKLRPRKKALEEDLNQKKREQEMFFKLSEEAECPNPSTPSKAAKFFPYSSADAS
Tyrosine-protein kinase Fer, sequence (P16591 whole entry, looked up, the tested form may be a part): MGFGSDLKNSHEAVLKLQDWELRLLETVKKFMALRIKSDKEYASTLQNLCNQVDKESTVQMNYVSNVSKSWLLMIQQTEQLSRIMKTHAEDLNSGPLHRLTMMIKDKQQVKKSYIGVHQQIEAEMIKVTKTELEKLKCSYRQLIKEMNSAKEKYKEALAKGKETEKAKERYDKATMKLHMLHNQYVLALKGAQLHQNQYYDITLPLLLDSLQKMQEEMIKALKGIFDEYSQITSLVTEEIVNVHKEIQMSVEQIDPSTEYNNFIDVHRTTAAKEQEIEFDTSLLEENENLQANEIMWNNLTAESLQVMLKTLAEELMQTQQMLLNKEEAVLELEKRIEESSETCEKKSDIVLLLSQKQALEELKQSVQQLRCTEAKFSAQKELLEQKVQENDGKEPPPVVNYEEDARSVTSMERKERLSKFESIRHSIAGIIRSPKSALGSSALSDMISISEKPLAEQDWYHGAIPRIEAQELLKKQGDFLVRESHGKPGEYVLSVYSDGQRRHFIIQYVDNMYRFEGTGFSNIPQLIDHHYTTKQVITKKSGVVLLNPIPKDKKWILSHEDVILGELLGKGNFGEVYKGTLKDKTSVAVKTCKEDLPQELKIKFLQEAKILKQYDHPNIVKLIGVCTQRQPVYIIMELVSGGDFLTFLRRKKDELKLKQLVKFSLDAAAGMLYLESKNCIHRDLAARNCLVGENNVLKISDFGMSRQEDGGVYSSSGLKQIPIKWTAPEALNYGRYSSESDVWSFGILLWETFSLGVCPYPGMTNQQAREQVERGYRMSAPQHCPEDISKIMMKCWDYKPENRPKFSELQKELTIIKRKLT
RAC-alpha serine/threonine-protein kinase (Homo sapiens), sequence (P31749 whole entry): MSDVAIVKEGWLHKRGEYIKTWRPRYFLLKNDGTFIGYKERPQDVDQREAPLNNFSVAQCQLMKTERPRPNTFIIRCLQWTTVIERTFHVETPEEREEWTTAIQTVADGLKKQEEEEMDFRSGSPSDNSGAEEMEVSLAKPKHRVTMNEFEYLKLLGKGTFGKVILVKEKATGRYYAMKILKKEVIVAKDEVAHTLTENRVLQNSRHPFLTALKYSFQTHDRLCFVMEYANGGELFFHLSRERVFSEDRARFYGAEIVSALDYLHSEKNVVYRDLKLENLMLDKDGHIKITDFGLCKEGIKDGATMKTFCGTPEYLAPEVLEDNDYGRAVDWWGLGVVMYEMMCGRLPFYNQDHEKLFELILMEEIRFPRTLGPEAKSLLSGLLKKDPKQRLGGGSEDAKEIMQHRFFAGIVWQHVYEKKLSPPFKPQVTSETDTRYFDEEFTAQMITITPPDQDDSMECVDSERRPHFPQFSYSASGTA

In the case of `CCN1CCN(Cc2ccc(NC(=O)c3ccc(C)c(Oc4ccnc5[nH]ccc45)c3)cc2C(F)(F)F)CC1`, the inhibition [1] was “inactive”, the inhibition [2] was 50.1% and the inhibition at 1 µM [3] was 7.6%. For the same compound, the inhibition [4] was 85.6%, the inhibition [5] was “inactive” and the inhibition [6] was 77.8%. The inhibition [7] was “inactive”, the inhibition [8] was 6.1% and the residual activity [9] was 4.8%. The inhibition [10] was “inactive” and the inhibition [11] was “inactive”.

Compound `CNc1cc(Oc2cc(C(=O)Nc3cc(N4CCN(C)CC4)cc(C(F)(F)F)c3)ccc2C)ncn1` has an inhibition [12] of 2.5%, an inhibition [13] of 5.3% and an inhibition [14] of -6.7%. For the same compound, the inhibition [15] was -7.1% and the inhibition [16] was 11.5%.

With `CCN1CCN(Cc2ccc(NC(=O)c3ccc(C)c(/C=C/c4cnc5[nH]ccc5c4OC)c3)cc2C(F)(F)F)CC1` the inhibition [17] was 0.8%, the residual activity [18] was 100% and the residual activity [19] was 83%. For the same compound, the inhibition [20] was 100% and the inhibition [21] was 9.1%.
